The record followed here is PMC10721329, “Quisinostat is a brain-penetrant radiosensitizer in glioblastoma” (JCI Insight, 2023).

Assay [1] concerns orthotopic GB126 tumors. Briefly: Bioluminescence imaging of tumor burden, orthotopic GB126 PDX. It counts as in vivo, athymic nude mice. As to conditions: individual mice. As to the method: We additionally questioned whether QST, either alone or in combination with IR, could extend the survival of tumor-bearing mice. In this study, mice received the same treatments described above, but after completion of the 1-week IR regimen, mice continued to receive QST at 10 mg/kg or vehicle solution on MWF until study completion, as determined by large tumor burden and onset of neurological symptoms (Figure 8A). […] Although QST monotherapy slowed tumor growth, median survival for the QST-treated mice was only 4 days longer than for the vehicle-treated mice (P < 0.01), and IR alone increased median survival by 17 days (P < 0.001; Figure 8D). However, combining QST with IR led to a significant increase in median survival (37 days, P < 0.001) compared with the vehicle (Figure 8D). […]
Rad225XL irradiator (Precision X -Ray). […]
Live Bioluminescence Imaging
Two weeks after implantation, mice were examined for tumor growth by monitoring bioluminescence every 7 days using the IVIS Xenogen Spectrum platform. D -Luciferin Potassium Salt (Gold Biotechnology) was dissolved in PBS at a final concentration of 15 mg/mL. All mice were weighed each week and administered D -Luciferin via an intraperitoneal injection (10 μl/g). Fifteen minutes after injection, the mice were sedated using gaseous isoflurane (Piramal) and placed inside an IVIS Spectrum in vivo imaging system (Perkin Elmer) […]
for bioluminescence imaging. The total flux (photons/second) within the region of interest was calculated using the Living Image software 4.5 (Perkin Elmer).
Preparation of QST for In Vivo Use
For in vivo preparation, QST was dissolved in 50% polyethylene glycol (PEG) 300, 50% sterile water solution for 10 mg/kg dosing. The suspension was then sonicated for 10 minutes to allow the drug to completely dissolve. Finally, the pH of both the drug and the vehicle solutions was adjusted to 7.4 before intraperitoneal dosing. […]
In Vivo Irradiation Studies
Intracranial or flank tumor–bearing nude mice were sedated with gaseous isoflurane before
IR. On the first week of treatment, 2 hours after treatment with QST or vehicle, the mice were […]

Assay [2] concerns orthotopic GB126 tumors. Briefly: Survival study, orthotopic GB126 PDX, QST with or without IR. The class given is in vivo, athymic nude mice. As to conditions: for Survival, Days Post Injection (death): GB126 PDX, individual mice; for increase of median survival versus vehicle: orthotopic GB126 PDX. As for the experimental part:
We additionally questioned whether QST, either alone or in combination with IR, could extend the survival of tumor-bearing mice. In this study, mice received the same treatments described above, but after completion of the 1-week IR regimen, mice continued to receive QST at 10 mg/kg or vehicle solution on MWF until study completion, as determined by large tumor burden and onset of neurological symptoms (Figure 8A). […] Although QST monotherapy slowed tumor growth, median survival for the QST-treated mice was only 4 days longer than for the vehicle-treated mice (P < 0.01), and IR alone increased median survival by 17 days (P < 0.001; Figure 8D). However, combining QST with IR led to a significant increase in median survival (37 days, P < 0.001) compared with the vehicle (Figure 8D).
Seven-week-old Foxn1^nu nude male mice (The Jackson Laboratory) were used for in vivo orthotopic transplantation of luciferized GB126 ([…]) cells (at a density of 50,000 cells/μL). All procedures were performed as described elsewhere ([11]). All mice were observed daily and were sacrificed upon the onset of severe neurological symptoms and more than 10% body weight loss. Survival data were plotted and analyzed using GraphPad Prism 8. See Supplemental Methods for detailed in vivo methods. […]
treated with 2 Gy of ionizing radiation on MWF for a total 6 Gy (3 doses). Ionizing radiation was administered with the RS2000 series biological research irradiator (Rad Source Technologies). […]
Treatment of Mice with Intracranially Implanted QST and/or Radiation
Mice with implanted tumors were allowed to grow until the tumor bioluminescence score reached […] radiance (p/s/[…]/sr). Mice were randomized into groups before treatment. For survival studies, mice underwent treatment on MWF for the entire duration of the experiment until moribund. For mice receiving IR treatment with or without QST, mice were treated with 2 […]
Gy on MWF for a total of 6 Gy in the first week of treatment. Treatment groups included vehicle (50% PEG-3000), QST (10 mg/kg) alone, 6 Gy whole-brain IR treatment with vehicle, and 6 Gy whole-brain IR treatment with 10 mg/kg QST. QST was administered to mice through intraperitoneal injections two hours prior to whole-brain radiation treatment. Upon completion of the radiation regimen, IR-treated mice subsequently received QST or vehicle alone for the rest of the experiment. Tumor growth and treatment response was monitored by IVIS bioluminescence once per week. For survival studies, mice were sacrificed, and samples were collected for PD and PK analyses once moribund 2 hours after treatment with a final dose of QST (10 mg/kg).
For short-term PK-PD correlation studies, tumor-bearing mice were randomized into groups and underwent a single week of treatment with QST (10 mg/kg) on MWF. […]

SMILES strings stand for the structures. Values joined by “and” are separate entries in the source; they are usually repeats but may differ in a detail not shown here. Equal values may be shown once.

For the molecule `Cn1cc(CNCC2CCN(c3ncc(C(=O)NO)cn3)CC2)c2ccccc21` [QST, quisinostat], the “IVIS imaging, bioluminescence” value in the assay on orthotopic GB126 tumors [1] (Qstat 10 mg/kg + IR 6 Gy, day 0 post Tx start (baseline)) is 75600000 photons/seconds and 79700000 photons/seconds and 125000000 photons/seconds and 47900000 photons/seconds and 137000000 photons/seconds and 47600000 photons/seconds and 28100000 photons/seconds and 33000000 photons/seconds and 18800000 photons/seconds and 23200000 photons/seconds; in the assay with orthotopic GB126 tumors [1] (Qstat 10 mg/kg + IR 6 Gy, day 8 post Tx start) it was 37000000 photons/seconds and 56500000 photons/seconds and 14000000 photons/seconds and 16000000 photons/seconds and 118000000 photons/seconds and 67200000 photons/seconds and 5460000 photons/seconds and 2880000 photons/seconds and 542000 photons/seconds and 178000000 photons/seconds; in the assay on orthotopic GB126 tumors [1] (Qstat 10 mg/kg + IR 6 Gy, day 29 post Tx start), 111000000 photons/seconds and 75900000 photons/seconds and 60800000 photons/seconds and 55400000 photons/seconds and 150000000 photons/seconds and 22000000 photons/seconds and 8210000 photons/seconds and 10600000 photons/seconds and 10200000 photons/seconds and 15700000 photons/seconds; in the assay with orthotopic GB126 tumors [1] (Qstat 10 mg/kg + IR 6 Gy, day 36 post Tx start) it was 9000000 photons/seconds and 4380000 photons/seconds and 371000000 photons/seconds and 40800000 photons/seconds and 426000000 photons/seconds and 6690000 photons/seconds and 51000000 photons/seconds and 114000000 photons/seconds and 111000000 photons/seconds; in the assay on orthotopic GB126 tumors [1] (Qstat 10 mg/kg + IR 6 Gy, day 43 post Tx start) it was 943000000 photons/seconds and 1020000000 photons/seconds and 359000000 photons/seconds and 413000000 photons/seconds and 832000000 photons/seconds and 252000000 photons/seconds (2×) and 865000000 photons/seconds and 139000000 photons/seconds and 55200000 photons/seconds; in the assay with orthotopic GB126 tumors [1] (Qstat 10 mg/kg + IR 6 Gy, day 50 post Tx start), 1010000000 photons/seconds and 2140000000 photons/seconds and 260000000 photons/seconds and 1180000000 photons/seconds and 4090000000 photons/seconds and 2810000000 photons/seconds and 808000000 photons/seconds and 15100000 photons/seconds and 286000000 photons/seconds. Besides, the “IVIS imaging, bioluminescence” value is 6040000000 photons/seconds and 4070000000 photons/seconds and 1070000000 photons/seconds and 2530000000 photons/seconds and 1020000000 photons/seconds and 1870000000 photons/seconds and 1150000000 photons/seconds with orthotopic GB126 tumors [1] (Qstat 10 mg/kg + IR 6 Gy, day 57 post Tx start); 86400000 photons/seconds and 33100000 photons/seconds and 140000000 photons/seconds and 26400000 photons/seconds and 105000000 photons/seconds and 45000000 photons/seconds and 52600000 photons/seconds and 53600000 photons/seconds and 60100000 photons/seconds and 13600000 photons/seconds with orthotopic GB126 tumors [1] (Qstat 10 mg/kg alone, day 0 post Tx start (baseline), PDX model); 42100000 photons/seconds and 58500000 photons/seconds and 585000000 photons/seconds and 200000000 photons/seconds and 458000000 photons/seconds and 884000000 photons/seconds and 49000000 photons/seconds and 19500000 photons/seconds and 581000000 photons/seconds and 107000000 photons/seconds with orthotopic GB126 tumors [1] (Qstat 10 mg/kg alone, day 8 post Tx start); 5290000 photons/seconds and 888000000 photons/seconds and 5530000 photons/seconds and 4270000 photons/seconds and 7590000 photons/seconds and 19400000 photons/seconds in the assay with orthotopic GB126 tumors [1] (Qstat 10 mg/kg alone, day 15 post Tx start); 1550000000 photons/seconds and 10600000000 photons/seconds and 15100000000 photons/seconds and 7070000000 photons/seconds and 3880000000 photons/seconds and 387000000 photons/seconds and 12600000000 photons/seconds and 413000000 photons/seconds and 4430000000 photons/seconds with orthotopic GB126 tumors [1] (Qstat 10 mg/kg alone, day 29 post Tx start). For the same molecule, the “Survival, Days Post Injection (death)” value was 79 days and 85 days and 83 days and 86 days and 75 days and 84 days and 82 days with orthotopic GB126 tumors [2] (QST 10 mg/kg + IR 6 Gy); 65 days and 50 days and 49 days and 48 days and 46 days and 57 days and 54 days and 66 days in the assay with orthotopic GB126 tumors [2] (QST 10 mg/kg alone). The figures for the “increase of median survival versus vehicle” value with orthotopic GB126 tumors [2] (QST 10 mg/kg MWF + IR 6 Gy) and with orthotopic GB126 tumors [2] (QST 10 mg/kg MWF monotherapy) were 37 days and 4 days, respectively.
